Experimental findings from PubChem BioAssay (NCI) are described below.

The structures appear in SMILES notation.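 In this assay, cells in 96-well plates receive the compound at five concentrations for 48 hours. Endpoints are linearly interpolated between the surrounding concentrations. At the GI50, growth is halved. TGI marks complete inhibition of growth.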 A value given as a limit tells only on which side of the number the result lay.

The first assay deals with SF-539 CNS. As to the kind of experiment: DTP human tumour cell line panel, 48 h.
Usually TGI stands for the concentration at which net growth stops. Low readings indicate more potent growth arrest, high ones less potent growth arrest. `COc1ccc(NC(=O)CC/C(CC(=O)c2ccco2)=N/NC(=O)C(N)=O)cc1` came in with a total growth inhibition concentration (TGI) greater than 100 µM.
One may read the GI50 as the concentration at which growth is held to half of that of the control. Regarding `N/N=C\c1c2ccccc2c(=O)n2c1oc1ccccc12`, the GI50 is 11.4 µM and the total growth inhibition concentration (TGI) is 23.6 µM.
For `CCOC(=O)[CH-]C(=O)C12CC3CC(CC(C3)C1)C2.CCOC(=O)[CH-]C(=O)C12CC3CC(CC(C3)C1)C2.CC[O-].CC[O-].[Ti+4]`, the GI50 is greater than 100 µM and the concentration for total growth inhibition (TGI) is greater than 100 µM.
`CCCC1(CC(=O)O)OCCc2c1[nH]c1ccccc21` (stereo not drawn): the concentration for total growth inhibition (TGI) was greater than 100 µM.

The next assay has as its system IGROV1 ovarian. Kind of assay: DTP human tumour cell line panel, 48 h.
The compound `O=C(Nc1ccc(C(F)(F)F)cc1[N+](=O)[O-])C(=O)C1NC(=S)NC1=O` (stereo not drawn) came in with a TGI greater than 100 µM.
Still for that read-out and setting: to `COc1cc(NCC(C#N)C#N)ccc1N=Nc1ccc(Cl)cc1` belongs 71.7 µM; to `O=C1N/C(=C\[N+](=O)[O-])c2ccccc21`, greater than 100 µM.
For the compound `Cn1c(Cl)c(/C=C2/C(=O)Nc3ccccc32)c2ccccc21`, the GI50 is 2.12 µM and the TGI was greater than 100 µM.
For `COc1ccc(C(C#N)NC23CC4CC(CC(C4)C2)C3)cc1` (stereo not drawn), the TGI was greater than 100 µM.
The same measure, in the same setting: the same measure for `COc1ccc(NC(=O)CC/C(CC(=O)c2ccco2)=N/NC(=O)C(N)=O)cc1`: greater than 100 µM.
On to `CCOC(=O)[CH-]C(=O)C12CC3CC(CC(C3)C1)C2.CCOC(=O)[CH-]C(=O)C12CC3CC(CC(C3)C1)C2.CC[O-].CC[O-].[Ti+4]`, for which the GI50 is greater than 100 µM and the TGI is greater than 100 µM.
The compound `CCCC1(CC(=O)O)OCCc2c1[nH]c1ccccc21` (stereo not drawn) gave a TGI greater than 100 µM.

The test system of a further assay is UACC-62 melanoma. Kind of assay: DTP human tumour cell line panel, 48 h.
Regarding `COc1ccc2c(c1)C(=O)CCc1cc(OC)c(OC)c(OC)c1-2`, the GI50 was less than 0.01 µM and the concentration for total growth inhibition (TGI) is greater than 100 µM.
As for `O=C(Nc1ccc(C(F)(F)F)cc1[N+](=O)[O-])C(=O)C1NC(=S)NC1=O` (stereo not drawn), the TGI is greater than 100 µM.
The same measure, in the same setting: to `COc1cc(NCC(C#N)C#N)ccc1N=Nc1ccc(Cl)cc1` belongs 23.8 µM.
The same measure, in the same setting: to `O=C1N/C(=C\[N+](=O)[O-])c2ccccc21` belongs greater than 100 µM.
As to `Cn1c(Cl)c(/C=C2/C(=O)Nc3ccccc32)c2ccccc21`, the concentration for 50% growth inhibition (GI50) was 0.13 µM and the total growth inhibition concentration (TGI) is 7.1 µM.
Regarding `COc1ccc(C(C#N)NC23CC4CC(CC(C4)C2)C3)cc1` (stereo not drawn), the TGI was greater than 100 µM.
The same measure, in the same setting: to `COc1ccc(NC(=O)CC/C(CC(=O)c2ccco2)=N/NC(=O)C(N)=O)cc1` belongs greater than 100 µM.
Regarding `N/N=C\c1c2ccccc2c(=O)n2c1oc1ccccc12`, the GI50 was 6.82 µM and the concentration for total growth inhibition (TGI) was 19.7 µM.
For `CCOC(=O)[CH-]C(=O)C12CC3CC(CC(C3)C1)C2.CCOC(=O)[CH-]C(=O)C12CC3CC(CC(C3)C1)C2.CC[O-].CC[O-].[Ti+4]`, in that order: greater than 100 µM and greater than 100 µM.
In the case of `CCCC1(CC(=O)O)OCCc2c1[nH]c1ccccc21` (stereo not drawn), the concentration for total growth inhibition (TGI) was greater than 100 µM.

The next assay relates to RPMI-8226 leukemia. As to the kind of experiment: DTP human tumour cell line panel, 48 h.
Regarding `COc1ccc2c(c1)C(=O)CCc1cc(OC)c(OC)c(OC)c1-2`, the GI50 is less than 0.01 µM and the TGI is greater than 100 µM.
As to `O=C(Nc1ccc(C(F)(F)F)cc1[N+](=O)[O-])C(=O)C1NC(=S)NC1=O` (stereo not drawn), the total growth inhibition concentration (TGI) was greater than 100 µM.
For `COc1cc(NCC(C#N)C#N)ccc1N=Nc1ccc(Cl)cc1`, the total growth inhibition concentration (TGI) was 92.3 µM.
Still for that read-out and setting: to `O=C1N/C(=C\[N+](=O)[O-])c2ccccc21` belongs greater than 100 µM.
In the case of `Cn1c(Cl)c(/C=C2/C(=O)Nc3ccccc32)c2ccccc21`, the GI50 is 0.582 µM and the total growth inhibition concentration (TGI) worked out at 4.6 µM.
Consider `COc1ccc(C(C#N)NC23CC4CC(CC(C4)C2)C3)cc1` (stereo not drawn), for which the concentration for total growth inhibition (TGI) is greater than 100 µM.
On the same count and under the same terms, to `COc1ccc(NC(=O)CC/C(CC(=O)c2ccco2)=N/NC(=O)C(N)=O)cc1` belongs greater than 100 µM.
On to `N/N=C\c1c2ccccc2c(=O)n2c1oc1ccccc12`, for which the GI50 was 9.18 µM and the TGI amounted to 29 µM.
For `CCOC(=O)[CH-]C(=O)C12CC3CC(CC(C3)C1)C2.CCOC(=O)[CH-]C(=O)C12CC3CC(CC(C3)C1)C2.CC[O-].CC[O-].[Ti+4]`, in that order: greater than 100 µM and greater than 100 µM.
`CCCC1(CC(=O)O)OCCc2c1[nH]c1ccccc21` (stereo not drawn) came in with a concentration for total growth inhibition (TGI) greater than 100 µM.

Another assay has as its system UO-31 renal. As to the kind of experiment: DTP human tumour cell line panel, 48 h.
In the case of `COc1ccc2c(c1)C(=O)CCc1cc(OC)c(OC)c(OC)c1-2`, the GI50 was less than 0.01 µM and the concentration for total growth inhibition (TGI) is greater than 100 µM.
The compound `O=C(Nc1ccc(C(F)(F)F)cc1[N+](=O)[O-])C(=O)C1NC(=S)NC1=O` (stereo not drawn) returned a TGI greater than 100 µM.
Take `COc1cc(NCC(C#N)C#N)ccc1N=Nc1ccc(Cl)cc1`: the TGI worked out at 52.5 µM.
The compound `O=C1N/C(=C\[N+](=O)[O-])c2ccccc21` registered a TGI greater than 100 µM.
Consider `Cn1c(Cl)c(/C=C2/C(=O)Nc3ccccc32)c2ccccc21`, for which the GI50 is 3.39 µM and the concentration for total growth inhibition (TGI) was found to be 44.7 µM.
In turn, `COc1ccc(C(C#N)NC23CC4CC(CC(C4)C2)C3)cc1` (stereo not drawn) displayed a TGI greater than 100 µM.
Still for that read-out and setting: the same measure for `COc1ccc(NC(=O)CC/C(CC(=O)c2ccco2)=N/NC(=O)C(N)=O)cc1`: greater than 100 µM.
For the compound `N/N=C\c1c2ccccc2c(=O)n2c1oc1ccccc12`, the GI50 is 25.8 µM and the concentration for total growth inhibition (TGI) was 87.7 µM.
In the case of `CCOC(=O)[CH-]C(=O)C12CC3CC(CC(C3)C1)C2.CCOC(=O)[CH-]C(=O)C12CC3CC(CC(C3)C1)C2.CC[O-].CC[O-].[Ti+4]`, the GI50 is greater than 100 µM and the TGI was greater than 100 µM.
Consider `CCCC1(CC(=O)O)OCCc2c1[nH]c1ccccc21` (stereo not drawn), for which the TGI is greater than 100 µM.
